These results are taken from ChEMBL document CHEMBL1201862, “PubChem BioAssay data set” (2004).

Holding throughout (test): NCI tumour cell line growth inhibition, 48 h
In assay [1] the test system is NCI-H522.
Assay [2] has as its system RXF 393.
The subject of assay [3] is SF-539.
For assay [4], the system named is RPMI-8226.
The subject of assay [5] is SNB-75.
Assay [6] has as its system M14.
Assay [7] has as its system Malme-3M.
Assay [8] relates to PC-3.
Assay [9] has as its system SF-295.
Assay [10] has as its system HL-60.
In assay [11] the test system is CAKI-1.
Assay [12] relates to TK-10.
Assay [13] concerns U-251.
The subject of assay [14] is HT-29.
Assay [15] deals with NCI-H226.
Assay [16] relates to COLO 205.
Assay [17] concerns DU-145.
For assay [18], the system named is NCI/ADR-RES.
Assay [19] has as its system OVCAR-4.
In assay [20] the test system is HCC 2998.

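48-hour exposure; five concentrations; linearly interpolated endpoints. Abbreviation: GI50, concentration required for 50% inhibition of growth.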 Active and inactive are the calls of the source. Cut-off read from the data, not from the text of the source: active = GI50 up to about 1.1 µM and inactive = higher.

Take `O=C(O)c1cccc(SSc2cccc(C(=O)O)c2)c1`: the GI50 in assay [1] is 58.1 µM (inactive); in assay [2], > 100 µM (inactive); in assay [3], > 100 µM (inactive); in [4], > 100 µM (inactive); in assay [5] it was > 100 µM (inactive); in [6], > 100 µM (inactive). Besides, the GI50 in [7], in [8], in assay [9], in [10], in assay [11] and in assay [12] was > 100 µM (inactive) each time. The GI50 in assay [13], in [14], in assay [15], in assay [16], in [17] and in assay [18] was > 100 µM (inactive) each time. Also, the GI50 in assay [19] is > 100 µM (inactive).
In the case of `C/C(C=O)=N\Nc1cc(C)c2ccccc2n1`, the GI50 was 17.1 µM (inactive) in [1]; 17.5 µM (inactive) in [2]; 11.7 µM (inactive) in assay [3]; 11.9 µM (inactive) in [4]; 15.1 µM (inactive) in assay [5]; 15.7 µM (inactive) in [6]. Further, the GI50 in [8] is 13.7 µM (inactive); in assay [9] it was 15.2 µM (inactive); in assay [20] it was 15.1 µM (inactive); in assay [11], 16.9 µM (inactive); in assay [12] it was 15.5 µM (inactive); in assay [13], 14 µM (inactive). Further, the GI50 is 16.7 µM (inactive) in assay [14]; 6.52 µM (inactive) in assay [15]; 16.4 µM (inactive) in assay [16]; 15.5 µM (inactive) in assay [17]; 15.7 µM (inactive) in [18]; 12.8 µM (inactive) in assay [19].
Regarding `O=C(c1ccccc1)c1ccc2[nH]c(-c3c(Cl)c(Cl)c(Cl)c(Cl)c3C(=O)N/N=C/c3ccccc3)nc2c1`, the GI50 in assay [1] was 18.1 µM (inactive); in [2], 14.4 µM (inactive); in assay [3], 25.1 µM (inactive); in assay [4], 23.4 µM (inactive); in [5], 17.9 µM (inactive); in assay [6] it was 31.2 µM (inactive). In addition, the GI50 is 26.1 µM (inactive) in [7]; 24.1 µM (inactive) in assay [8]; 22.4 µM (inactive) in assay [9]; 18.6 µM (inactive) in assay [10]; 34.1 µM (inactive) in assay [11]; 38.8 µM (inactive) in assay [12]. In addition, the GI50 was 35.8 µM (inactive) in [13]; 30.8 µM (inactive) in [14]; 19.9 µM (inactive) in [15]; 17.5 µM (inactive) in assay [16]; 38 µM (inactive) in assay [17]; 19.8 µM (inactive) in [18]. In assay [19], the GI50 is 16.4 µM (inactive).
Turning to `O=c1c(NCc2ccccc2)c(C2(c3ccccc3F)SCCCS2)c1=O`, the GI50 was 23.7 µM (inactive) in assay [1]; > 100 µM (inactive) in assay [2]; > 100 µM (inactive) in assay [3]; > 100 µM (inactive) in [5]; > 100 µM (inactive) in assay [6]; > 100 µM (inactive) in assay [8]. Further, the GI50 in assay [9] was > 100 µM (inactive); in [10], 29.2 µM (inactive); in assay [11] it was > 100 µM (inactive); in assay [12] it was > 100 µM (inactive); in [13] it was > 100 µM (inactive); in assay [14], > 100 µM (inactive). Besides, the GI50 in assay [15], in [16], in assay [17], in [18] and in assay [19] was > 100 µM (inactive) each time.
Turning to `CCOC(=O)CCC(NC(=O)c1ccc(NCc2ccc3nc(-c4ccccc4)c(Cl)nc3c2)c2ccccc12)C(=O)OCC` (stereo not given), the GI50 in [1] is 50.9 µM (inactive); in [2] it was > 100 µM (inactive); in assay [3] it was > 100 µM (inactive); in assay [5] it was > 100 µM (inactive); in assay [6], > 100 µM (inactive); in assay [7] it was > 100 µM (inactive). Further, the GI50 in assay [8], in [9], in assay [20], in [11], in assay [12] and in assay [13] was > 100 µM (inactive) throughout. Moreover, the GI50 in assay [14], in assay [15], in assay [16], in assay [17], in assay [18] and in assay [19] was > 100 µM (inactive) in each case.
As to `Cc1cc(C)c2c(n1)S(=O)(=O)N(CCCN1CCN(c3cccc(Cl)c3)CC1)C(C(=O)c1ccc(Br)cc1)=C2O`, the GI50 in assay [1] was 20.5 µM (inactive); in assay [2], 23.8 µM (inactive); in assay [3], 20.7 µM (inactive); in assay [5], 10.3 µM (inactive); in assay [6], 19.4 µM (inactive); in assay [7], 24.7 µM (inactive). Moreover, the GI50 in [8] is 22 µM (inactive); in assay [9] it was 18.9 µM (inactive); in assay [10] it was 14.3 µM (inactive); in [11] it was 6.9 µM (inactive); in assay [12] it was 17.7 µM (inactive); in assay [13], 21.3 µM (inactive). Moreover, the GI50 was 25.4 µM (inactive) in assay [14]; 15.4 µM (inactive) in [16]; 26.4 µM (inactive) in assay [17]; 18.8 µM (inactive) in [18]; 11.4 µM (inactive) in assay [19].
Take `CCOC(=O)C1=CNC(C(=O)OCC)C1c1cccn1-c1ccc(Cl)cc1[N+](=O)[O-]` (stereo not given): the GI50 in [1] is 16 µM (inactive); in assay [2], 14.6 µM (inactive); in [3], 16.6 µM (inactive); in assay [5], 17.4 µM (inactive); in [6] it was 15.3 µM (inactive); in assay [8] it was 20.7 µM (inactive). The GI50 in [9] was 16.4 µM (inactive); in assay [20], 16.3 µM (inactive); in assay [11] it was 20 µM (inactive); in assay [12], 13.1 µM (inactive); in assay [13] it was 20.7 µM (inactive); in [14] it was 16.1 µM (inactive). The GI50 in [15] is 20.1 µM (inactive); in assay [16] it was 31.2 µM (inactive); in [17], 29.5 µM (inactive); in assay [18], 18.5 µM (inactive); in assay [19], 31.3 µM (inactive).
For the molecule `CCOc1cc(-c2nc3cc(F)ccc3s2)ccc1O`, the GI50 in assay [1] is 11.5 µM (inactive); in assay [2], 18.6 µM (inactive); in assay [3], 18.8 µM (inactive); in assay [4], 10.7 µM (inactive); in assay [6], 17.2 µM (inactive); in assay [7], 15.3 µM (inactive). The GI50 is 14.5 µM (inactive) in [8]; 20 µM (inactive) in assay [9]; 26 µM (inactive) in assay [20]; 16.9 µM (inactive) in assay [11]; 18.7 µM (inactive) in assay [12]; 19.5 µM (inactive) in [13]. The GI50 in assay [14] is 18.1 µM (inactive); in assay [15], 17 µM (inactive); in assay [16], 19.7 µM (inactive); in assay [17], 17.6 µM (inactive); in [18], 23 µM (inactive); in [19], 26.2 µM (inactive).
For `CC(C)(N)C(=O)N[C@@H]1C(=O)N2[C@@H]1SC(C)(C)[C@@H]2C(=O)O`, the GI50 in assay [1], in [2], in assay [3], in assay [4], in [5] and in [6] was > 100 µM (inactive) in each case. The GI50 was > 100 µM (inactive) in assay [7]; > 100 µM (inactive) in assay [8]; > 100 µM (inactive) in assay [9]; < 0.01 µM (active) in assay [10]; > 100 µM (inactive) in assay [11]; > 100 µM (inactive) in [12]. For the same molecule, the GI50 in assay [13], in assay [14], in [15], in assay [16], in assay [17] and in assay [18] was > 100 µM (inactive) throughout. Further, the GI50 in [19] was > 100 µM (inactive).
With `COc1ccc(N2C(=O)C(=O)C3(CCCCC3)C2=O)c(OC)c1OC`, the GI50 in assay [1], in [2], in assay [3], in assay [4], in assay [5] and in [6] was > 100 µM (inactive) throughout. The GI50 in assay [7], in assay [8], in [9], in assay [10], in [11] and in assay [12] was > 100 µM (inactive) throughout. For the same molecule, the GI50 in assay [13], in assay [14], in assay [15], in assay [16], in assay [17] and in [18] was > 100 µM (inactive) throughout. The GI50 in assay [19] is > 100 µM (inactive).
For the molecule `COc1c2ccoc2nc2c(OC)c(OCC(O)C(C)(C)O)ccc12` (stereo not given) [EVOXINE], the GI50 in [1] is > 100 µM (inactive); in assay [3] it was > 100 µM (inactive); in [4] it was > 100 µM (inactive); in assay [5] it was 63.1 µM (inactive); in [6], > 100 µM (inactive); in [7] it was > 100 µM (inactive). Also, the GI50 in [8], in assay [9], in [20], in [10], in [11] and in assay [12] was > 100 µM (inactive) throughout. Further, the GI50 in assay [13], in assay [14], in [15], in [16], in assay [17] and in assay [18] was > 100 µM (inactive) each time. Further, the GI50 in assay [19] was > 100 µM (inactive).
